The values below come from US20090232744A1, “Macrolide compositions having improved taste and stability” (priority 2008, published 2009).

Data set [1] deals with Burkholderia cepacia ATCC 17759. As to the kind of experiment: MIC, agar dilution method. Particulars: ATCC17759, Mueller-Hinton agar, aerobic, 16-20 h at 36° C. It counts as cell-based. An excerpt:
(§1) The formulations prepared according to Examples 11, 12 and 13, were used to evaluate the Minimal Inhibitory Concentration (MIC) required to inhibit the growth of the following organisms: Burkholderia cepacia, Haemophilus influenzae, and Pseudomonas aeruginosa, using the agar dilution method based on DIN 58940 and 58944 according to NCCLS (National Committee on Clinical Laboratory Standards) criteria. […] To determine MIC, Petri dishes containing Mueller-Hinton agar supplemented with agar-agar, or chocolate agar were prepared. Dilutions of the formulations prepared under Examples 11, 12, 13 and 14 were prepared in aqua purificata, resulting in solutions containing 1000 μg drug per ml (with exception of the formulation only containing levofloxacin, where a dilution containing 640 μg/ml was prepared). […] Two agar plates were poured for each test concentration and culture medium. After solidification and drying, the agar plates were inoculated with the test organisms and incubated as described in Table 7. [table] The MIC was given as the lowest concentration of the active substance at which there was no macroscopically visible growth. Minimal, barely visible growth or few small individual colonies were evaluated as inhibition. The MIC readings are generally subject to an error of up to two dilutions. […] For Haemophilus spp., it was defined that a breakpoint ≦4 μg/ml is classified as susceptible.

Data set [2] relates to Haemophilus influenzae ATCC 49247. The data set is described as follows: MIC, agar dilution method. It is filed as cell-based. The settings on record: for MIC: ATCC49247, Chocolat agar, microaerophile, 16-20 h at 36° C.
Text: as §1
For orientation: In agar dilution, organisms are placed on agar that contains the substance at set levels.

For data set [3], the system named is Pseudomonas aeruginosa ATCC 9027. The data set is described as follows: MIC, agar dilution method. It is filed as cell-based. The settings on record: ATCC9027, Mueller-Hinton agar, aerobic, 16-20 h at 36° C.
Text: as §1

The conditions of data set [4]: cited from earlier work.
[5] abbreviates: after single oral dose administration.

Values after ≈ are worked out from the molar mass of the structure shown.

With `NC[C@H]1O[C@H](O[C@H]2[C@H](O)[C@@H](O[C@H]3O[C@H](CO)[C@@H](O)[C@H](N)[C@H]3O)[C@H](N)C[C@@H]2N)[C@H](N)C[C@@H]1O` [Tobr., tobramycin], the results for the MIC in data set [1], in data set [2] and in data set [3] were 50 µg/mL (≈ 107 µM), 50 µg/mL (≈ 107 µM) and 0.781 µg/mL (≈ 1.67 µM), respectively. The susceptibility classification entry in data set [2] is “resistant”.

For the compound `CC[C@H]1OC(=O)[C@H](C)[C@@H](O[C@H]2C[C@@](C)(OC)[C@@H](O)[C@H](C)O2)[C@H](C)[C@@H](O[C@@H]2O[C@H](C)C[C@H](N(C)C)[C@H]2O)[C@](C)(O)C[C@@H](C)CN(C)[C@H](C)[C@@H](O)[C@]1(C)O` [Azi., azithromycin], in data set [1], the MIC is 25 µg/mL (≈ 33.4 µM). In data set [2], the susceptibility classification entry is on record as “resistant” and the MIC amounted to 25 µg/mL (≈ 33.4 µM). For the same compound, the MIC in data set [3] was found to be 6.25 µg/mL (≈ 8.34 µM). Moreover, the “concentration in sputum exceeds the plasma concentration” value in data set [4] (after multiple oral doses) is 67 fold. Also, in data set [4] (setting [5]), the “concentration in alveolar macrophages exceeds plasma concentration” value is 170 fold and the “concentration in bronchial mucosa exceeds plasma concentration” value is 29 fold.

On to `C[C@H]1COc2c(N3CCN(C)CC3)c(F)cc3c(=O)c(C(=O)O)cn1c23` [Levo., levofloxacin], for which the MIC came to 4 µg/mL (≈ 11.1 µM) in data set [1], 0.25 µg/mL (≈ 0.692 µM) in data set [2] and 0.5 µg/mL (≈ 1.38 µM) in data set [3].
